Where two headings read alike, the source gives them in different places.
Legend:
[1] = system: HCT116/54C cells; assay: In vitro cytotoxicity, 4 h exposure oxic/anoxic, 5-day regrowth, sulforhodamine B; format: cell-based, human; conditions: HCT116/54C; for HCR: IC50(oxic)/IC50(anoxic); for IC50: Homo sapiens, 4 h exposure, mean ± SEM, n = 3–4
Text: (§1) This allowed derivation of hypoxia cytotoxicity ratios (HCR) as IC50(oxic)/IC50(anoxic) in an HCT116 subclone HCT116/54C and two HNSCC cell lines, FaDu and UT-SCC-74B (Table 2).
(§2) HCT116/54C is an HCT116 subline that originated from a mixed culture with UT-SCC-54C cells, which was supplied alongside UT-SCC-74B by Prof. Bradly Wouters (University Health Network, Toronto, ON, Canada). HCT116/54C and UT-SCC-74B cells were passaged in minimum essential media (MEM, ThermoFisher Scientific, Waltham, MA, USA) with 10% foetal calf serum (FCS, Moregate Biotech, Hamilton, New Zealand), 4.5 mg/mL D-glucose (Sigma-Aldrich, St. Louis, MO, USA) and 20 mM HEPES (Sigma-Aldrich). FaDu cells were sourced from American Type Culture Collection and cultured in αMEM (ThermoFisher Scientific) with 10% FCS. All cell lines were confirmed mycoplasma-free by PlasmoTest (InvivoGen, San Diego, CA, USA) and were derived from STR-authenticated cryopreserved stocks. Log-phase cells were seeded into 96-well plates at 800 cells/well for HCT116/54C and 1500 cells/well for FaDu. […] After drug washout, cells were grown and stained as for the oxic IC50 assays. The hypoxic cytotoxicity ratio HCR was determined as HCR = IC50(oxic)/IC50(anoxic).

[2] = system: UT-SCC-74B cells; assay: as above; format: cell-based, human; conditions: for IC50: Homo sapiens, 4 h exposure, mean ± SEM; for HCR: IC50(oxic)/IC50(anoxic)
Text: as §1, §2

[3] = system: FaDu cells; assay: as above; format: cell-based; conditions: for IC50: Homo sapiens, 4 h exposure, mean ± SEM; for HCR: IC50(oxic)/IC50(anoxic)
Text: as §1, §2

[4] = system: HCT116/54C cells; assay: In vitro radiosensitisation under anoxia, clonogenic survival; format: cell-based, human; conditions: compound 1 mM, radiation dose for 1% survival/radiation dose for 1% survival with compound, mean ± SEM
Method: Next, we evaluated in vitro radiosensitisation by using a representative subset of nitroimidazole compounds in HCT116/54C cells with a clonogenic survival endpoint. Radiosensitisation was determined by treating cells under anoxia with a range of radiation doses alone and with compounds at equimolar doses (1 mM). Sensitiser enhancement ratios (SER) were calculated as the ratio of radiation dose required for 1% clonogenic survival alone or with compound (Table 3).
Cells were seeded onto 96-well plates at 10^5 cells per well and allowed to attach for 2 h. […] The plates were irradiated (Eldorado 78 ^60Co teletherapy unit, ~2 Gy/min) with 15 Gy under anoxia at room temperature for SR experiments. A metal wedge placed on the top of the metal chamber was used to achieve a graduated radiation dose across the plate, varying from 7 to 29 Gy, calibrated by Fricke dosimetry with ammonium thiocyanate as previously described for SER experiments. The control plate (compound alone, no radiation) was left inside the anaerobic chamber at room temperature during the irradiation period. After treatment, the cells were trypsinized and suspended in usual media + 1% penicillin-streptomycin (ThermoFisher Scientific), and 10-fold serial dilutions were plated for clonogenic survival. After 10 days, plates were stained with methylene blue (2 g/L in EtOH/H2O, 1:1 v/v) and colonies with more than 50 cells were counted. The surviving fraction (SF) was determined as: SF = PE(irradiated)/PE(control) where the plating efficiency (PE) = (No. of colonies)/(No. of cells plated). SF was plotted against radiation dose. Survival ratios (SR) were calculated: SR = (cell survival with radiation)/(cell survival with drug + radiation). Sensitizer enhancement ratios (SER) were calculated: SER = (radiation dose for 1% survival without compound)/(radiation dose for 1% survival with compound).

[5] = system: HCT116/54C tumours; assay: Tumour radiosensitisation: ex vivo clonogenic assay; format: in vivo, NIH-III mice
Method: Specific pathogen-free six- to eight-week-old female NIH-III mice, bred in the Vernon Jansen Unit, University of Auckland, were used for animal experiments. Animals had ad libitum access to food and water and were maintained in microisolator cages on a 12 h light/dark cycle. All treatments were administered by i.v. injection at a dose of 2.2 mmol/kg and injection volume of 10 mL/kg. Compounds 2, 34 and 38 were administered as solutions in saline containing 1% DMSO or for 9–12 as solutions in saline containing 2 molar equivalents of NaHCO3. Control animals received an i.v. injection of saline at 10 mL/kg. All animal experiments were conducted under the auspices of the University of Auckland Animal Ethics Committee (approval 1781).
Compounds were evaluated for in vivo radiosensitisation of hypoxic cells in HCT116/54C and UT-SCC-74B human tumour xenografts using clonogenic survival as an endpoint, using previously report methods. Tumours were grown subcutaneously on the flanks of NIH-III mice by injecting 5 × 10^6 HCT116/54C cells or UT-SCC-74B cells. Once tumours reached a volume of approximately 250 mm^3, mice were randomly assigned to 4 treatment groups and treated with: (A) vehicle control, (B) 10 Gy RAD only, (C) sensitiser only, or (D) sensitiser given before 10 Gy RAD. Drugs were administered as a single i.v. dose at 2.2 mmol/kg. […] Tumours were excised 18 h after treatment, and tumour cells were dissociated enzymatically and plated to determine the number of surviving (clonogenic) cells per gram of tumour tissue. SF and SR were calculated as described above. Statistical significance of drug effects was tested using one-way ANOVA with Sidak tests for multiple comparisons vs. radiation alone (Table 5).

[6] = anoxic, n = 3–4, read-out: IC50 Anoxic
[7] = oxic, n = 3–4, read-out: IC50 Oxic

Structure (SMILES) | HCR [1] | IC50 ([1]; anoxic, read-out: IC50 Anoxic) | IC50 ([1]; oxic, read-out: IC50 Oxic) | IC50 [2, 6] | IC50 [2, 7] | HCR [2] | IC50 [3, 6] | IC50 [3, 7] | HCR [3] | SER at 1 mM [4] | Sensitisation Ratio ([5]; 2.2 mmol/kg i.v. 5 min prior to 10 Gy radiation, surviving fraction after radiation/surviving fraction after drug + radiation) | enhancement of tumour killing of radiotherapy (RAD vs drug + RAD) ([5]; 2.2 mmol/kg i.v. + 10 Gy, one-way ANOVA)
Cc1ncc([N+](=O)[O-])n1CCS(=O)(=O)NCCN1CCOCC1 [Compound 42] | 1.8 | 4.3 ± 0.2 mM | 7.6 ± 0.4 mM | 6.6 ± 0.6 mM | 8.9 ± 1.6 mM | 1.4 | 7.8 ± 0.2 mM | 9.8 ± 1.2 mM | 1.3 | 1.16 ± 0.01 |  | 
O=[N+]([O-])c1cncn1CCS(=O)(=O)NCCOP(=O)(O)O [Compound 12] |  |  |  |  |  |  |  |  |  |  | 3.32 | significantly enhanced the tumour killing of radiotherapy
Cc1ncc([N+](=O)[O-])n1CCS(=O)(=O)NCCO [Compound 41] | >1.1 | 15.5 ± 2.6 mM | > 18 mM | 13.7 ± 3.7 mM | > 21 mM | >1.5 | > 22 mM | > 25 mM |  | 1.16 ± 0.01 |  | 
Cc1ncc([N+](=O)[O-])n1CCS(=O)(=O)NCCCN1CCOCC1 [Compound 44] | >2.0 | 10.3 ± 1.5 mM | > 21 mM | 7.1 ± 1.5 mM | 13.2 ± 2 mM | 1.9 | 7.8 ± 0.7 mM | > 16 mM | >2.0 |  |  | 
O=[N+]([O-])c1cncn1CCS(=O)(=O)NCCO [Compound 8] | >2.4 | 9 ± 0.9 mM | > 22 mM | 10.9 ± 1.3 mM | > 22 mM | >2.0 | 6.6 ± 0.6 mM | > 24 mM | >3.6 | 1.27 ± 0.00 |  | 
Cc1ncc([N+](=O)[O-])n1CCS(=O)(=O)NCCN1CCCCC1 [Compound 45] | 5.0 | 2.4 ± 0.4 mM | 11.8 ± 1.5 mM |  |  |  | 1.7 ± 0.4 mM | 4.8 ± 0.3 mM | 2.8 |  |  | 
COCCNS(=O)(=O)CCn1cncc1[N+](=O)[O-] [Compound 39] | >1.9 | 13 ± 1.3 mM | > 25 mM |  |  |  | 7.2 ± 0.2 mM | > 19 mM | >2.6 |  |  | 
O=[N+]([O-])c1nccn1CCS(=O)(=O)NCCO [Compound 6] | >7.3 | 2.2 ± 0.04 mM | > 16 mM | 3 ± 0.6 mM | > 20 mM | >6.6 | 1.2 ± 0.2 mM | 17.8 ± 2.2 mM | 14.9 | 1.39 ± 0.01 |  | 
COCCNS(=O)(=O)Cn1ccnc1[N+](=O)[O-] [Compound 33] | >51 | 0.12 ± 0.002 mM | > 6.2 mM | 0.19 ± 0.02 mM | 3.7 ± 0.8 mM | 19.9 | 0.09 ± 0.01 mM | 4 ± 1.2 mM | 46.6 |  |  | 
COCCNS(=O)(=O)Cn1cncc1[N+](=O)[O-] [Compound 37] | 2.9 | 4 ± 0.7 mM | 11.4 ± 1 mM |  |  |  | 2.1 ± 0.04 mM | 12 ± 1.9 mM | 5.7 |  |  | 
COCCNS(=O)(=O)CCn1ccnc1[N+](=O)[O-] [Compound 35] | >16 | 0.97 ± 0.16 mM | > 16 mM |  |  |  | 0.81 ± 0.12 mM | 16.5 ± 1.6 mM | 20.4 |  |  | 
O=[N+]([O-])c1cncn1CCN1CCOCC1 [Compound 3, nimorazole, reference compound] |  | > 20 mM | > 25 mM |  |  |  | 13.2 ± 3.4 mM | > 20 mM | >1.5 | 1.20 ± 0.01 |  | 
O=[N+]([O-])c1nccn1CCS(=O)(=O)NCCN1CCOCC1 [Compound 36] | 12.9 | 0.71 ± 0.13 mM | 9.2 ± 1.1 mM | 1.6 ± 0.3 mM | 11.9 ± 1.5 mM | 7.6 | 0.69 ± 0.04 mM | 7.3 ± 0.6 mM | 10.6 | 1.57 ± 0.00 |  | 
Cc1ncc([N+](=O)[O-])n1CCS(=O)(=O)N1CCC(N(C)C)CC1 [Compound 46] | 8.6 | 2 ± 0.3 mM | 16.9 ± 1.4 mM | 1.9 ± 0.2 mM | 8.1 ± 0.9 mM | 4.4 | 1.3 ± 0.1 mM | 9.5 ± 2 mM | 7.3 |  |  | 
COCCNS(=O)(=O)CCn1c([N+](=O)[O-])cnc1C [Compound 40] | >1.8 | 11 ± 0.4 mM | > 20 mM |  |  |  | 8 ± 0.5 mM | > 22 mM | >2.7 |  |  | 
Cc1ncc([N+](=O)[O-])n1CCS(=O)(=O)N1CCN(C)CC1 [Compound 43] | 1.2 | 9.9 ± 0.3 mM | 11.7 ± 1.3 mM |  |  |  | 8.6 ± 0.6 mM | 13.3 ± 2.5 mM | 1.6 |  |  | 

— paper PMC10254852, “Design, Synthesis and Anticancer Evaluation of Nitroimidazole Radiosensitisers” (Molecules, 2023)
